Laboratory results: patent US20260091078A1, “OLIGOPEPTIDE THAT INHIBITS ANGIOGENESIS AND VASCULAR FUNCTION” (UNIVERSIDAD NACIONAL AUTONOMA DE MEXICO, priority 2019, published 2026)

Key:
[1] = test system: primary cells from the human umbilical vein (HUVEC); assay: Transwell Matrigel invasion of HUVEC stimulated with VEGF; assay type: cell-based; conditions: 100 nM, VEGF 50 ng mL^-1, 24 hours
Experimental: Endothelial cells were seeded over 100 μl Matrigel™ matrix (380 ng μl^−1) on a permeable ‘transwell’ support in a transwell chamber having an area of 0.33 cm^2 and 8 μm of pore-diameter at a density of 30,000 and 14,000 cells cm^−2 for BUVEC E6E7 and HUVEC cells, respectively. In the upper (luminal) compartment the cells were maintained with starving media F12K having 0.1 or 0.5% FBS for BUVEC E6E7 and HUVEC, respectively. In addition, HUVEC cells were maintained with 100 μg ml^−1 heparin. […] After 24 hours the media from both compartments and the luminal cells were removed. The abluminal cells were fixed with 100% MeOH for 10 minutes, permeabilized with TBS1x-0.5% Triton X-100, and stained with Hoechst 33342. The total number of cells in the abluminal compartment indicates the invasive activity of endothelial cells.
The inhibitory effect of 100 nM of the oligopeptide THGRGFI on the invasion of immortalized endothelial cells from the bovine umbilical vein (BUVEC E6E7) (FIG. 3A) or primary cells from the human umbilical vein (HUVEC) (FIG. 3B) stimulated in each case with VEGF (50 ng mL^−1) was compared with the inhibitory effect of 100 nM of the 123 amino acid vasoinhibin (***P<0.001).

[2] = test system: interleukin-1α (IL-1α); assay: Expression of vasoinhibin target gene IL-1α mRNA in BUVEC E6E7 (qPCR); assay type: cell-based, bovine; conditions: BUVEC E6E7, 100 nM, 4 hours
Experimental: (§1) Vasoinhibin induces the expression of a variety of genes via the activation of NF-KB to promote angiostatic and inflammatory effects. In particular, interleukin-1 alpha (IL-1α) and the intercellular adhesion molecule 1 (ICAM1) are vasoinhibin gene targets in the bovine endothelial cells. To evaluate the ability of the oligopeptide […] to induce the expression of IL-1α and ICAM1, BUVEC […] cells were seeded on 12 well plates with F12K-10% FBS, grown to 80% confluency, and starved with low serum (0.1% FBS) culture medium for 24 h. […] After 4 hours the RNA was extracted from the cells using Trizol (Invitrogen, Carlsbad, CA) and retrotranscribed using the High Capacity cDNA Reverse Transcription Kit (Applied Biosystems, Foster City, CA). The RT-PCR products were quantified in a Maxima SYBRgreen qPCR (Thermo Fisher Scientific) 10 μl final volume reaction mixture containing the template and 0.25 μM of each primer. The PCR amplification was done in the CFX96 Real Time PCR (BioRad), comprising a 10-minute denaturalization at 95° C., followed by 35 amplification cycles (95° C. for 10 sec, 58° C. for 30 sec, and 72° C. for 30 sec). […] The PCR data was analyzed by the 2^-ΔΔCT method and the threshold of the cycles (CT) was normalized by the constitutive housekeeping gene cyclophilin A (PPIA). […]

[3] = test system: intracellular adhesion molecule 1 (ICAM1); assay: Expression of vasoinhibin target gene ICAM1 mRNA in BUVEC E6E7 (qPCR); assay type: cell-based, bovine; conditions: BUVEC E6E7, 100 nM, 4 hours
Experimental: as §1

[4] = test system: human endothelial cells from the umbilical-vein (HUVEC); assay: Formation of capillary structures by HUVEC on Matrigel; assay type: cell-based; conditions: 100 nM, 6 hours
Experimental: For investigating whether the oligopeptide THGRGFI shares this property, a primary culture of human endothelial cells from the umbilical-vein (HUVEC) was maintained in F12K media supplemented with 20% FBS, 100 μg ml^−1 of heparin, and 25 μg ml^−1 endothelial cell growth supplement (ECGS). Cells from passages 2 to 4 were rinsed with tempered PBS1x and were detached from the plate with 0.25% trypsin-EDTA for ˜3 minutes and centrifuged to remove trypsin. The cells were counted using an hemocytometer and seeded at a density of 29,000 cells cm^−2 in 300 μl of F12K medium supplemented with 20% FBS and with heparin on a 24-well plate, over a layer of ˜9.7 μg μl^−1 Matrigel™ which was previously polymerized for 1 hour at 37° C. Cells were then treated with 100 nM vasoinhibin or the oligopeptide THGRGFI, and after 6 hours, micrographs were obtained in an inverted microscope. The images were analyzed to quantify main joining areas per field using the software “Angiogenesis Analyzer” [Gilles Carpentier. ImageJ contribution: Angiogenesis Analyzer. ImageJ News, 5 Oct. 2012.] and the ImageJ software.

[5] = test system: BUVEC E6E7; assay: Vasopermeability in vitro: transendothelial electrical resistance (TEER); assay type: cell-based, bovine; conditions: BUVEC E6E7 monolayer, 100 nM, 50 ng ml^-1 VEGF, up to 120 minutes
Experimental: Another conventional protocol to evaluate vasopermeability is the measurement of the transendothelial electrical resistance (TEER), which uses a device that applies an electric current through electrodes at both sides of the endothelial cell monolayer. […] The effect of the oligopeptide THGRGFI on endothelial cell permeability was evaluated by measuring TEER. BUVEC E6E7 were seeded in the TEER device at a density of 10,000 cells cm^−2. After three days, the monolayers were starved in low serum media (0.1% FBS) for 48 hours and after this time, 100 nM of vasoinhibin or of the oligopeptide were added to the upper compartment (luminal surface of the monolayer) for 1 hour. At time 0, TEER was recorded and 50 ng ml^−1 of VEGF were added to the luminal side. The TEER was measured at 10, 20, 30, 60, 90 and 120 minutes. Determinations were performed with the Epithelial Volt/Ohm (TEER) EVOM2 equipment (World Precision Instruments, FL, USA) with a 4 mm ‘chopstick’ electrode. Values were normalized relative to a device with no cells and a monolayer without treatment.

[6] = test system: VEGF-induced retinal vasopermeability; assay: Vasopermeability in vivo: VEGF-induced retinal albumin extravasation (Evans blue method); conditions: Wistar rats, intravitreal, 20 μM with 300 ng VEGF, 24 hours
Experimental: For evaluating if the oligopeptide THGRGFI conserves the inhibitory properties of vasoinhibin on VEGF-induced vasopermeability in vivo, the effect of the intravitreal injection of VEGF alone or in combination with the oligopeptide or vasoinhibin in rats was determined.
Wistar rats were intravitreally injected with saline (control) or with 300 ng of VEGF in each case alone or in combination with 20 μM of the oligopeptide of the invention or with 20 μM of vasoinhibin. After 24 hours, the extravasation of albumin into the retina was evaluated using the Evans blue method. Briefly, 45 mg kg^−1 of total weight of the Evans blue dye was injected intravenously to anesthetized rats and was allowed to circulate for 2 hours. Then, the animals were perfused with ˜80 ml of PBS at a flow of ˜40 ml min^−1. The retinas were dissected, dried and incubated with 200 μl of formamide (Mallinckrodt Baker, Phillipsburg, NJ) at 72° C. and after 18 hours the labeled albumin was determined in the retinal extracts.

Substance: Ac-THGRGFI-NH2 [THGRGFI, Thr His Gly Arg Gly Phe Ile]
- inhibition of invasion of endothelial cells [1]: significatively inhibited
- fold-change of expression of IL-1α mRNA versus non-treated control [2]: ~30 fold
- fold-change of expression of ICAM1 mRNA versus non-treated control [3]: ~13 fold
- effect on capillary structures (main joining areas per field) [4]: disrupted the capillary structures
- effect on VEGF-induced reduction of transendothelial resistance (TEER) [5]: block the VEGF effect
- inhibition of VEGF-induced retinal vasopermeability [6]: blocks the VEGF increase in retinal vasopermeability
